From US7531660B2, “1-[[1-[(2-amino-6-methyl-4-pyridinyl)methyl]-4-fluoro-4-piperidinyl]carbonyl]-4-[2-(2-pyridinyl)-3H-imidazo[4,5-B]pyridin-3-YL]piperidine and methods of use thereof” (Schering Corporation, priority 2005, dated 2009)
Where “and” joins values, the source holds several entries; their conditions need not be identical. Equal entries are not always repeated. Where two headings read alike, the source gives them in different places.

Key:
[1] = tested on: mice made obese with a high fat diet; experiment: Diet-induced obesity in mice (weight gain); format: in vivo; settings: DIO mice, oral once a day, 0.3 mg/kg in 20% aqueous HPBCD
Procedure: Diet-induced obesity (DIO) was determined according to the following procedure. Young mice were maintained in individual cages at 22° C. on a 12:12 hr light/dark cycle. Mice were made obese with a high fat diet. Mice were orally gavaged daily with vehicle or compound; body weight and food intake were monitored daily.

Feline H3 Receptors = Feline H3 Receptors (Felis catus, UniProt A0ABI7WGM6); experiment: Binding to feline H3 receptors, brain P2 membranes; settings: Cat brain membranes, N=3, mean ± SEM
Sequence of Feline H3 Receptors (A0ABI7WGM6 entry or part of it): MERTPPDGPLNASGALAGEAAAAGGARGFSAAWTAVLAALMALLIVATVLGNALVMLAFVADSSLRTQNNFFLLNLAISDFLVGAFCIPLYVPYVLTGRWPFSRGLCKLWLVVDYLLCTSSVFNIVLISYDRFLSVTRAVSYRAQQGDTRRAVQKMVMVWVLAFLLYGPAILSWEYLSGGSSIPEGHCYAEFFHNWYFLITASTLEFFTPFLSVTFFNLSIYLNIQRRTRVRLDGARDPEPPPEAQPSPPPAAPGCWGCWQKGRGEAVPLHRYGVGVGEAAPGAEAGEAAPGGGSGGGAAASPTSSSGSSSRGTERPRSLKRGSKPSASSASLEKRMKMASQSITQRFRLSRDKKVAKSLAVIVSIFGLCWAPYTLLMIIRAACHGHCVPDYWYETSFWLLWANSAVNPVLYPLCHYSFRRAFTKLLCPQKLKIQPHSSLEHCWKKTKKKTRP
Procedure: (§1) Binding assays were performed with membranes from a P2 pellet preparation of brain from each species as described in West et al., Mol Pharmacol 38:610-613 (1990). Frozen brains were thawed at room temperature and then disrupted in ten volumes (w:v) of ice-cold 50 mM Tris-HCl, pH 7.4, with a Polytron. Homogenates were centrifuged at 1000×g and supernatants then centrifuged at 50,000×g. Pellets from the second centrifugation were resuspended in buffer, sedimented again at 50,000×g, and stored frozen at −80° C.
(§2) Each 200 μL assay volume contained 1.0 nM [^3H]N^−α-methylhlstamine, test compound, and 300 μg of membrane protein in 50 mM Tris-HCl, pH 7.4. Total binding was determined in the absence of compound and nonspecific binding in the presence of 10^−5 M thioperamide. Assay mixtures are incubated 30 minutes at 30° C. then filtered on CF/B filters. Filters were rinsed three times with cold buffer, dried, impregnated with Meltilex scintillation counting medium, and counted. IC50 values were determined using standard curve-fitting procedures and Ki values were calculated from these using the method set forth in Cheng et al., Biochem Pharmacol 22:3099-3108 (1973). Each competition binding assay comprised ten concentrations of compound, each concentration assayed in duplicate. Binding data obtained for the Compound of Formula I to canine and feline H3 receptors are set forth below in Table 1. […]

[2] = Canine pharmacokinetics after oral and i.v. administration; format: in vivo, beagle dogs; settings: fasted dogs; for MRT: read-out: Mean Residence Time (MRT)
Procedure: The Compound of Formula I was administered at a dose of 3 mg/kg to fasted beagle dogs orally (PO) at […] (0.4% MC formulation) and i.v. at […] (captisol, pH 5.1 fornulation). Blood samples were taken at multiple time intervals for 48 hours post dosing. The blood samples were converted to plasma and stored at −20° C. until being assayed for the Compound of Formula I using an HPLC-API-MS/MS procedure. The pharmacokinctic parameters that were calculated from thiis study are sumarized in Table 2 below.

[3] = target: T1, recombinant human histamine H3 receptor (Homo sapiens, UniProt Q9Y5N1); experiment: Human H3-receptor binding assay ([3H]N-alpha-methylhistamine, HEK-293 membranes)
T1 construct: expressed in transfected cells
T1 sequence (Q9Y5N1 whole entry): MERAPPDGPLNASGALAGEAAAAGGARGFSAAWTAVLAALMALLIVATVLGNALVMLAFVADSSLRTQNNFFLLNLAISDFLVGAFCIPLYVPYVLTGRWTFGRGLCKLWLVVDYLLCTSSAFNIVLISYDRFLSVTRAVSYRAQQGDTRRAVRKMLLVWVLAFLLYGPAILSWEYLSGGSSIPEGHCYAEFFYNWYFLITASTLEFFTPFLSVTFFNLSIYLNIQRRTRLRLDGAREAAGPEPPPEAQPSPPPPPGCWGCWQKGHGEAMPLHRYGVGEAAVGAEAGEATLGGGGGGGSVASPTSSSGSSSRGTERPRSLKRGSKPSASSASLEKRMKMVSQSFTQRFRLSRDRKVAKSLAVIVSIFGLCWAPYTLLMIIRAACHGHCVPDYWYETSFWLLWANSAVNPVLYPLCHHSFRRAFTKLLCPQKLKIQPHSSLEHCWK
Procedure: Binding assays were performed with membranes from HEK-293 cells stably expressing recombinant human histamine H3 receptor. Each 200 μL assay volume contained 1.0 nM [^3H]N^−α-methylhistamine, test compound, and 3 μg of membrane protein in 50 mM Tris-HCl, pH 7.4. Total binding was determined in the absence of compound and nonspecific binding in the presence of 10^−5 M thioperamide. Material was incubated 30 minutes at 30° C. then filtered on GF/B filters. These were rinsed three times with cold buffer, then dried, impregnated with Meltilex scintillation counting medium, and counted. Ki values were determined from standard curve-fitting procedures. […] Values are averages from two assays with duplicate determinations in each. Errors are expressed as the range of these values from the mean.

Canine H3 Receptors = Canine H3 Receptors (Canis lupus familiaris, UniProt A0A8I3P226); experiment: Binding to canine H3 receptors, brain P2 membranes; settings: Dog brain membranes, N=2, mean ± SEM
Sequence of Canine H3 Receptors (A0A8I3P226 1-445): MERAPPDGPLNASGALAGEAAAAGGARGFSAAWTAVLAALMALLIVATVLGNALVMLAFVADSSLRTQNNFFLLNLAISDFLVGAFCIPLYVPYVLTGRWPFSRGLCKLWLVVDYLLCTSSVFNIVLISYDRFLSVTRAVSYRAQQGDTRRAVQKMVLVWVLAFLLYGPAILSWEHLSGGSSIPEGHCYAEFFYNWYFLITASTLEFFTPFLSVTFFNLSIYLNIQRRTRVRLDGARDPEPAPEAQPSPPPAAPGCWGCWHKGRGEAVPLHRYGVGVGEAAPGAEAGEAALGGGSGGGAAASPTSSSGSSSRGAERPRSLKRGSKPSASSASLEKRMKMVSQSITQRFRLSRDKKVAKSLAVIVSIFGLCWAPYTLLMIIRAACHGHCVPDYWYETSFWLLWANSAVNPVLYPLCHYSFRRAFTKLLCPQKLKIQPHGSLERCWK
Procedure: as §1, §2

[4] = Oral tolerance in dogs with plasma level analysis; format: in vivo, beagle dogs; settings: for Plasma level at Day 0: prior to the study; for concentration at 24 h / concentration at 7 day: beagle, dog, plasma, po; for concentration at 24 h / concentration at 7 day / Plasma level at Day 1 / Plasma level at Day 7: 5 mg/kg, 5 mg/kg oral daily; for concentration at 24 h / Plasma level at Day 1: 24 hours after first dose; for concentration at 24 h: read-out: Plasma level at Day 1; for concentration at 7 day / Plasma level at Day 7: end of study
Procedure: Male and female beagle dogs (N=6, age≧4 months, each having a body weight of from 10-15 kg) were used in this study. The treated animals (N=4) were orally administered the Compound of formula I once a day for 7 days at a daily dosage of 5 mg/kg (5 times proposed efficacy dose). The control animals (N=2) were orally administered vehicle only. Animals were fasted for 8 hours prior to each administration of the Compound of formula I or vehicle and were fasted for 2 hours after each administration of the Compound of formula I or vehicle. Blood samples were collected before, during, and after the treatment period for pharmacokinetic analysis.
Approximately 4.0±1 mL of blood was drawn from each animal at prior to the study (day 0), at 24 hours after the first dose (day 1), and at the end of the study (day 7), using jugular venipuncture and immediately placed into separated Vacutainer® tubes containing EDTA anticoagulant, and processed for plasma. The plasma was aspirated and divided into two aliquots (≧0.3 ml each) and each aliquot was frozen at −70° C. or less.
Collected blood plasma samples were analyzed for the concentration of the Compound of formula I using the following analytical method: […]
D: Sample Preparation Procedure: • 1) Pipette 40 μL of sample into a 1 mL 96-well plate. • 2) Add 150 μL of internal standard solution to each well. • 3) Gently vortex plate for 1 minute. • 4) Centrifuge samples for 10 minutes (Eppendorf 5810 Centifuge). • 5) Pipette 100 μL of supernatant into a 350 μL 96-well plate. Results

[5] = tested on: mice having diet-induced obesity; experiment: Liver triglycerides in obese mice; format: in vivo; settings: DIO mice, 10 mg/kg/day gavage for 12 days
Procedure: The Compound of Formula I was administered daily for 12 days via gavage to mice having diet-induced obesity at a dosage of 10 mg/kg/day (vehicle 0.4% aqueous methylcellulose (MC); see procedure for diet-induced obesity described above).
On day 12, the animals were sacrificed, their livers were collected, and liver pieces were extracted according to the procedure of Folch et al., J. Biol. Chem. 226:497-509 (1957). The collected liver tissue was then homogenized in 6 mL of chloroform:methanol (2:1), 4 mL water was added to the homogenized mixture and the resulting solution was vortexed, then centrifuged at 1000×g for 30 minutes. The chloroform layer was removed and dried under nitrogen to provide the extracted lipids, which were redissolved in 1 mL chloroform and aliquots were transferred into HPLC sample vials. […]
Chromatography was performed using an isocratic mobile phase containing 98.8% hexane and 1.2% isopropanol at a flow rate of 2 mL/min through a Zorbax Sil (4.6×25 cm) silica column (Agilent Technologies #880952-701). Lipids in a 5 μL injection were detected by absorbance at 206 nm and quantitated by computer integration (System Gold, Beckman) of elution profiles. Cholesterol, cholesteryl ester, and triglyceride concentrations were determined by comparison to standard curves using Non-polar Lipid Mix-B, Matreya, Inc., Pleasant Gap, Pa. cat. #1130.

[6] = beagle, dog, plasma, IV 3 mg/kg
[7] = beagle, dog, plasma, oral 3 mg/kg
[8] = beagle, dog, plasma, oral 3 mg/kg, 0.4% MC
[9] = both sexes, Mean of 4 treated dogs
[10] = dogs, daily oral 5 mg/kg for 7 days
[11] = male, male dog, individual animal

Cc1cc(CN2CCC(F)(C(=O)N3CCC(n4c(-c5ccccn5)nc5cccnc54)CC3)CC2)cc(N)n1 [Compound of Formula I, 1-[[1-[(2-amino-6-methyl-4-pyridinyl)methyl]-4-fluoro-4-piperidinyl]carbonyl]-4-[2-(2-pyridinyl)-3H-imidazo[4,5-b]pyridin-3-yl]piperidine]
inhibition of weight gain [1]: statistically significant inhibition of weight gain | Ki (Feline H3 Receptors): 4.9 ± 0.6 nM | clearance [2, 6]: 1.7 mL/min/kg | half-life [2, 6]: 570 min | AUC(0-inf) ([2]; beagle, dog, plasma, IV 3 mg/kg, captisol pH 5.1): 32800 ng·h/mL | MRT [2, 6]: 10.9 h | Vd ([2]; beagle, dog, plasma, IV 3 mg/kg, read-out: Vd (ss)): 1.1 L/kg | Cmax [2, 7]: 910 ng/mL | AUC(0-inf) [2, 8]: 18900 ng·h/mL | bioavailability [2, 8]: 58% | MRT [2, 7]: 18.6 h | Mean Absorption Time (MAT) (MRTpo − MRTiv) ([2]; oral 3 mg/kg): 7.8 h | Ki [3]: 4.6 nM | Ki (Canine H3 Receptors): 1.3 ± 0.2 nM | Plasma level at Day 0 ([4]; Mean of 4 treated dogs): 1.70 ng/mL | concentration at 24 h [4, 9]: 257 ng/mL | concentration at 7 day [4, 9]: 422 ng/mL | accumulation in plasma ([4]; dogs, 7 days daily oral 5 mg/kg): accumulated 7 days after daily oral administration | adverse events [4, 10]: No adverse events were observed | tolerability [4, 10]: well tolerated | Plasma level at Day 1 ([4]; female dog, individual animal): 148 ng/mL and 604 ng/mL | Plasma level at Day 7 ([4]; female dog, individual animal): 680 ng/mL | Plasma level at Day 0 ([4]; female dog, individual animal): 0 ng/mL | concentration at 7 day ([4]; female, female dog, individual animal): 540 ng/mL | Plasma level at Day 1 ([4]; male dog, individual animal): 157 ng/mL | Plasma level at Day 7 ([4]; male dog, individual animal): 207 ng/mL | Plasma level at Day 0 ([4]; male dog, individual animal): 0 ng/mL and 6.8 ng/mL | concentration at 24 h [4, 11]: 118 ng/mL | concentration at 7 day [4, 11]: 263 ng/mL | reduction in liver triglyceride content relative to control ([5]; 0.4% MC): 52% | liver triglyceride content ([5]; compound treated group, average): 861±87 mg/liver
